Measurements: US12669505B2, “Detection of desmoglein-2 in cancers of epithelial origin” (HDT Bio Corp., priority 2019, dated 2026)

System: ovarian cancer cell lines (OV-CAR)
Test: Western blot of DSG2 in OV-CAR cell supernatants after cisplatin treatment
Format: cell-based
Protocol: FIGS. 5A, 5B and 5C (collectively FIGS. 5A-5C) show the effect of DSG2 expression in response to cisplatin.
Western Blot. Mini-PROTEAN precast gels (BIO-RAD, Hercules, CA) with 4-15% gradient polyacrylamide are used. A total of 1 μg protein mixed with 2× loading buffer (10 mM Tris-HCl, pH 6.8, 200 mM DTT, 4% SDS, 20% glycerol, 0.2% bromophenol blue) is loaded per lane. Samples are either boiled (B) for 5 min or loaded unboiled (UB). The following running buffer is used: 25 mM Tris, pH 8.3, 0.192 M glycine, 0.1% SDS. After electrophoresis, proteins are transferred to nitrocellulose and incubated with the corresponding antibodies. For detection of DSG2 binding, filters are incubated with recombinant human DSG2 protein and anti-DSG2 antibody 6D8 as described (Wang et al. Nat Med. 2011; 17(1):96-104). Other Western blots use a primary mouse monoclonal antibody followed by an anti-mouse IgG HRP conjugate. Selected Western blots are scanned and quantified using the ImageJ 1.32 software (National Institutes of Health, Bethesda, MD).
In this Example, a potential mode of chemoresistance was investigated, DSG2 protein levels were determined in cancer cells after treatment with cisplatin, a commonly used platinum-based therapeutic used as first-line treatment of ovarian cancer and its metastases.
Cell supernatants from ovarian cancer cell lines (OV-CAR) were first interrogated with monoclonal and polyclonal anti-DSG2 antibodies to confirm specificity of the antibodies. […] Within 2 days of cisplatin treatment, the presence of cleaved DSG2, a product of DSG2 shedding, was detected in cell supernatant (FIGS. 5A and 5B). Quantitative analysis of the blot intensity indicated DSG2 peaking at 2 days after cisplatin treatment.

## N.N.[Cl][Pt][Cl] [cisplatin]
OV-CAR cells, after cisplatin treatment, ImageJ, day 0 as control
  time of DSG2 peak by quantitative analysis of blot intensity: 2 days
OV-CAR cells, after cisplatin treatment, Western blot
  time until cleaved DSG2 (product of DSG2 shedding) was detected in cell supernatant: ≤ 2 days
Cisplatin treatment
  DSG2 response of ovarian cancer cells to treatment: upregulated and shed in increased amounts
